The structures appear in SMILES notation. The source made the active and inactive calls. Some results are limits rather than exact numbers.

One data set addresses Cytochrome P450 2C9 (Homo sapiens, UniProt P11712).
Another data set has as its target T1, Cytochrome P450 1A2 (Homo sapiens, UniProt P05177).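 Note: PubChem cytochrome P450 panel assay, CYP1A2 panel member.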
T1 sequence (P05177 whole entry): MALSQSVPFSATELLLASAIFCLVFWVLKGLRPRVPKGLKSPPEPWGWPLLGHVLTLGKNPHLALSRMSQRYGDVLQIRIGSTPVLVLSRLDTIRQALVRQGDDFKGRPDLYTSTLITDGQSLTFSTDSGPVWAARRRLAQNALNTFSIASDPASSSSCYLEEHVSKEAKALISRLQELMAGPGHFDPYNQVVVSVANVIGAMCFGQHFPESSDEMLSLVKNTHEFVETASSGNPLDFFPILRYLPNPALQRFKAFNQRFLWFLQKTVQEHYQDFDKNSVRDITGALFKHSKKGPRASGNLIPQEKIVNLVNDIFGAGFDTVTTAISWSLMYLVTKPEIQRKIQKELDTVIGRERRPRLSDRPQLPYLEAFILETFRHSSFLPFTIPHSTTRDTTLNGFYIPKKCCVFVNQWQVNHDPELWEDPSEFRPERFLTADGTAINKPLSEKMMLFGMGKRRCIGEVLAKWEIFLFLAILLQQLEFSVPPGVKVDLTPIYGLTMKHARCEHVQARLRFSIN

The target in another data set is Cytochrome P450 2C19 (Homo sapiens, UniProt P33261). In words: Cytochrome panel assay with activity outcomes. Panel member name: p450-cyp2c19 Compounds with AC50 equal or less than 10 uM are considered active. The format is functional.
Cytochrome P450 2C19, sequence (P33261 whole entry): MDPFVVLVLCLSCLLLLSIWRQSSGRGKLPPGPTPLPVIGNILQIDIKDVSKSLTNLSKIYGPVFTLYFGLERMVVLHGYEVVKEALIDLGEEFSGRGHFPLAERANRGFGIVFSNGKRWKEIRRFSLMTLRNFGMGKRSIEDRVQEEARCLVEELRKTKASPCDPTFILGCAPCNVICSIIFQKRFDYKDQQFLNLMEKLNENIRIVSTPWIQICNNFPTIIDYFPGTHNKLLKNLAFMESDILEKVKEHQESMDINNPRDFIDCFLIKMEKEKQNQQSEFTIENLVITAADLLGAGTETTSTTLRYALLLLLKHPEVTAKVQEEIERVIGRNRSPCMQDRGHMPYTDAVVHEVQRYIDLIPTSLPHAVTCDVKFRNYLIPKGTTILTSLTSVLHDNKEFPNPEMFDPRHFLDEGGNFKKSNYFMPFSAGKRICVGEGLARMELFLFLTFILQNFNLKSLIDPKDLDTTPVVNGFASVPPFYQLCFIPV
The nature of data set [1]: alpha-synuclein stem-loop luciferase translation blockers – H4 neuroglioma cells, luminescence, confirmation (AID 1988). The format is functional, cell-based.
The nature of data set [2]: Luminescence Cell-Based Dose Response HTS to Identify Inhibitors of 5'UTR Stem-Loop Driven Prion Protein mRNA Translation in H4 Neuroglioblastoma Cells. [Related pubchem assays: 1827 (Project Summary), 1813 (Primary HTS)]. The format is functional.
Data set [3] can be described thus: luciferase reporter signal suppression in cells – H4 neuroglioma cells, luminescence, dose response (AID 1990). The format is functional, cell-based.
Data set [4] in a line: viability of uninfected HEp-2 cells – cell-based, HTS, cytotoxicity control for RSV inhibitor project, dose response (AID 2410). The format is functional. Particulars: human respiratory syncytial virus.
The target of the next data set is Paired box protein Pax-8 (Homo sapiens, UniProt Q06710). Description: PAX8 transcriptional activity inhibition in RMG-I – RMG-I cells, luciferase, cherry-pick, dose response (AID 687027).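 Note: luciferase reporter driven by Pax8 target thyroperoxidase promoter measured by SteadyGlo luminescence.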 The format is functional, cell-based.
Paired box protein Pax-8, sequence (Q06710 whole entry): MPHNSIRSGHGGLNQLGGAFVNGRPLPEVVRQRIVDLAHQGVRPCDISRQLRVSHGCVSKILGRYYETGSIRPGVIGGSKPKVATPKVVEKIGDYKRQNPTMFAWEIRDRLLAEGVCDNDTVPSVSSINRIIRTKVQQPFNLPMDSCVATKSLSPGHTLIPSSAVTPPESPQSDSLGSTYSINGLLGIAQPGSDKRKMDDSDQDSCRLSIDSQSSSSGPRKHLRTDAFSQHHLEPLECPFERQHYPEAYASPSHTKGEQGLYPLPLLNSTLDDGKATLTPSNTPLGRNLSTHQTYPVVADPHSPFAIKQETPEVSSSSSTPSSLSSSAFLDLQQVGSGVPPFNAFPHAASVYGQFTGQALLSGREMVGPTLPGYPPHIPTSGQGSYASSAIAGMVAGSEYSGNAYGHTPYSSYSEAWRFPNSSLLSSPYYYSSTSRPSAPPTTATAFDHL
The nature of data set [5]: cells. The format is functional, cell-based.
The target in a further data set is T2, Streptokinase A (Streptococcus pyogenes serotype M1, UniProt P10520).
T2 sequence (P10520 whole entry): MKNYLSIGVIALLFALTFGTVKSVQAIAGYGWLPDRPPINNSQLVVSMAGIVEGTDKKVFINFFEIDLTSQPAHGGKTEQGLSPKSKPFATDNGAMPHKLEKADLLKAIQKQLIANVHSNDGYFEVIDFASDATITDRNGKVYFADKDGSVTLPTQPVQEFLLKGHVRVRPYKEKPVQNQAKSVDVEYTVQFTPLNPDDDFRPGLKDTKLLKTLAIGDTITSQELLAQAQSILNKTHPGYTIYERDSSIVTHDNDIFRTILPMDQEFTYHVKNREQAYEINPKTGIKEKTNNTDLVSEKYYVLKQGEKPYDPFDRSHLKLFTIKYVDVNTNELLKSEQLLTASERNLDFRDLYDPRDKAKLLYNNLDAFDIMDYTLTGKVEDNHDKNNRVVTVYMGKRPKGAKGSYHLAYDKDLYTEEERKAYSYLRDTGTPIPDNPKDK
In words: viability-normalized secreted streptokinase activity reduction – plasminogen activation absorbance, OD405, dose response (AID 1914).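 Note: secreted streptokinase activity via plasminogen activation per viability signal from cell pellet.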 The format is functional, Streptococcus pyogenes M1 GAS.

Data set [6] can be described thus: cells. The format is functional, cell-based. The source holds these as a separate data set.
Another data set relates to Streptococcus. In words: GAS UMAA2166 growth inhibition – luminescence, BacTiterGlo, counter-screen for streptokinase expression inhibitor project, dose response (AID 1915).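 Note: potency for reduction of bacterial viability or growth.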 The format is functional, organism-based.
Data set [7] can be described thus: loss of viability in HepG2 cells – cell-based, CellTiter-Glo, cherry-picked, cytotoxicity control for Shn3 inhibitor project, dose response (AID 624134). The format is functional. In general terms: ATP-based viability assays read luminescence as a measure of living cells.
Data set [8] is described as follows: reduction of Shn3 3'UTR-driven luciferase in osteoblasts – cell-based, Clone20 osteoblasts, firefly luciferase, cherry-picked, dose response (AID 624132).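 Note: firefly luciferase luminescence from reporter carrying the Shn3 3'UTR in osteoblasts.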 The format is functional.
The next data set relates to INS1. In words: INS-1E survival protection against cytokine death – cell-based, luminescence, retest, dose response (AID 449756).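 Note: cell death triggered by IL-1 beta plus TNF-alpha plus IFN-gamma mixture; protective hits raise ATP signal compared with cytokine alone wells.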 The format is functional. Particulars: Rattus norvegicus, INS1.
The next data set concerns the target Cytochrome P450 3A4 (Homo sapiens, UniProt P08684).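 Note: CYP3A4 tested as one member of a cytochrome P450 panel screen.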

Cytochrome P450 2C9, sequence (P11712 whole entry): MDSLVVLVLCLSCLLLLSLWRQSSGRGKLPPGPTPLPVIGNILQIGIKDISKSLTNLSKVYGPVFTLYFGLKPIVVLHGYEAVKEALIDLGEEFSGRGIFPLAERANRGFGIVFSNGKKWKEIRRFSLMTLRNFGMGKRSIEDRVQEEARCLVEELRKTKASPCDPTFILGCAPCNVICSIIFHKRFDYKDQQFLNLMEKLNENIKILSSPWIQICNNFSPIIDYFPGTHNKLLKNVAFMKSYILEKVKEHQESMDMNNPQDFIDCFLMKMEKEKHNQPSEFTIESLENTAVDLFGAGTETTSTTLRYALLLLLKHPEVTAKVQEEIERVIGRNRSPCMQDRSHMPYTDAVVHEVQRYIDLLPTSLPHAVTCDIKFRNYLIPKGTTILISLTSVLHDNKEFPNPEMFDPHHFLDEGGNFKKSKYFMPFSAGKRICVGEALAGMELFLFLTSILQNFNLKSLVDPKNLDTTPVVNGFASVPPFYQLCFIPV
Cytochrome P450 3A4, sequence (P08684 whole entry): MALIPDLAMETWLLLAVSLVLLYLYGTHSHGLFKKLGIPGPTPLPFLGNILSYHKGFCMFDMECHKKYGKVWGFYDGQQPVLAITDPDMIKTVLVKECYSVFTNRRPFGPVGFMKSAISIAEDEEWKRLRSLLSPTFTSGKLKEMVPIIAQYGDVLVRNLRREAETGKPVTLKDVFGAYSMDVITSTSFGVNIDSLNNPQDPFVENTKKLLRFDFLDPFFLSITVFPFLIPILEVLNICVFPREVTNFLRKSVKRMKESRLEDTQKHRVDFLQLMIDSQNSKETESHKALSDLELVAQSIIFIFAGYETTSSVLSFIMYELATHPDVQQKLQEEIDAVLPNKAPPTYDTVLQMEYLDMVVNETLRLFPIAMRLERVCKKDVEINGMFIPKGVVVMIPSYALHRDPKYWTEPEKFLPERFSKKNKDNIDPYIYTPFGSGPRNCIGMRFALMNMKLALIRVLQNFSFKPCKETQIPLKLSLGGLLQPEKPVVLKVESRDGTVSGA

For the compound `COc1ccc(C2=NOC(C(=O)Nc3ccc(C(C)=O)cc3)C2)cc1OC` (stereo not given), the AC50 at Cytochrome P450 2C9 was 11.2 µM (inconclusive); on Cytochrome P450 1A2 it was 6.31 µM (inconclusive); on Cytochrome P450 2C19 (read-out: AC50), 22.4 µM (inconclusive).
On to `Cc1ccc(F)cc1NC(=O)CSc1nc(Nc2ccccc2)nc(N2CCOCC2)n1`, for which the values for the EC50 in data set [1], in data set [2] and in data set [3] were 15.6 µM (active), > 120 µM (not active) and 14.8 µM (active), respectively.
For the compound `Cc1c(C(=O)NCc2ccc3c(c2)OCO3)oc2ccc(Br)cc12`, the CC50 in data set [4] was 19.1 µM (active).
In the case of `O=S(=O)(c1ccccc1F)N1CC[C@@H]2[C@@H](CO)Nc3ccc(C4=CCCCC4)cc3[C@@H]21`, the AC50 on Paired box protein Pax-8 was 10.5 µM (active).
Take `CC(C)(C)c1csc(NNC(=O)c2ccc(Br)cc2)n1`: the EC50 in the data set “cells [5]” was > 350 µM (not active); on Streptokinase A, > 150 µM (not active); in the data set “cells [6]” it was 21 µM (active); in the data set on Streptococcus, > 150 µM (not active).
Consider `CC(=O)C(C)Oc1ccc2c3c(c(=O)oc2c1)CCCCC3` (stereo not given), for which the CC50 in [4] was > 50 µM (active).
Consider `CCOC(=O)c1c(C)[nH]c(C(=O)OCC(=O)NC2CCS(=O)(=O)C2)c1C` (stereo not given), for which the AC50 on Cytochrome P450 2C9 was 31.6 µM (inconclusive); at Cytochrome P450 2C19, “inconclusive”.
For the compound `CN(Cc1ccccc1)C(=O)c1cccc(NC(=O)Cc2ccc([N+](=O)[O-])cc2)c1`, the figures for the AC50 in data set [7] and in [8] were > 70 µM (inactive) and 16.8 µM (active), respectively.
Consider `COc1ccc(OC)c(Nc2nc(NCCC(C)C)nc(N)c2[N+](=O)[O-])c1`, for which the EC50 in “cells [5]” and in the data set “cells [6]” was > 350 µM (not active) each time.
For `CCOC(=O)c1oc2ccccc2c1NC(=O)CN1CCN(C)CC1`, the EC50 is 7 µM (active) in [1], 17.6 µM (active) in data set [2] and 10.9 µM (active) in data set [3].
Take `COc1cccc(C(=O)CN2C(=O)C(C)(C)Oc3ccc(C(=O)N4CCOCC4)cc32)c1`: the EC50 in the data set “cells [5]” and in “cells [6]” was > 350 µM (not active) throughout.
Consider `COc1ccc(-c2nnc(NC(=O)c3ccc4c(c3)OCCO4)o2)cc1`, for which the EC50 in data set [1], in data set [2] and in [3] was > 120 µM (not active) each time.
With `O=S(=O)(c1cccc2cnccc12)N1CCNCC1`, the figures for the AC50 on Cytochrome P450 1A2 and at Cytochrome P450 2C19 (read-out: AC50) were 39.8 µM (inconclusive) and 10 µM (inconclusive), respectively.
For the compound `CCCC(=O)C1=C(NCc2ccccc2)CC(C)(C)CC1=O`, the EC50 in the data set “cells [5]” and in the data set “cells [6]” was > 350 µM (not active) in each case.
For the compound `CCOc1cc2sc(N3CCC(C(=O)NCCCN4CCCC4=O)CC3)nc2cc1Br`, the CC50 in [4] is 19.8 µM (active).
Consider `CN(C)c1ccc(S(=O)(=O)NCC(=O)OCC(=O)Nc2cc(Cl)cc(Cl)c2)cc1[N+](=O)[O-]`, for which the EC50 in “cells [5]” and in “cells [6]” was > 350 µM (not active) throughout.
As for `COC(=O)c1sccc1S(=O)(=O)Nc1ccc(N2CCCCC2)cc1`, the AC50 in the data set on INS1 was 29 µM (active).
Consider `CCc1noc(C)c1C(=O)Oc1ccc(N(C)S(=O)(=O)c2ccccc2)cc1`, for which the CC50 in data set [4] is 26.2 µM (active).
`O=S(=O)(c1ccc2c(c1)OCCO2)N1CCC(c2nc(O)c3nnn(Cc4cccc(F)c4)c3n2)CC1`: in [4], the CC50 was 31.9 µM (active).
With `COc1ccccc1NC(=O)CN(C)S(=O)(=O)c1cccc2cccnc12`, the EC50 in the data set “cells [5]” and in “cells [6]” was > 350 µM (not active) in each case.
With `COc1cccc(N2CCN(CC(=O)Nc3ccc(SC(F)F)cc3)CC2)c1`, the EC50 in data set [1], in data set [2] and in data set [3] was > 120 µM (not active) each time.
Take `CCOc1ccc(Oc2nc(NCC(C)C)nc(N(C)C)n2)nn1`: the EC50 in data set [1] is > 120 µM (not active); in data set [2], > 120 µM (not active); in data set [3], 115 µM (active).
Regarding `O=C(Nc1ccc(Cl)c(Cl)c1)c1cccc(S(=O)(=O)NCc2cccnc2)c1`, the AC50 is 6.59 µM (active) in [7] and 5.39 µM (active) in data set [8].
In the case of `Cc1cccc2[nH]c(CN(C)C(=O)C3CCC(=O)N(C4CC4)C3)nc12` (stereo not given), the EC50 in “cells [5]” and in the data set “cells [6]” was > 350 µM (not active) each time.
With `Cn1/c(=N/C(=O)C2CCCCC2)sc2cc([N+](=O)[O-])ccc21`, the CC50 in [4] was > 50 µM (active).
On to `Cc1cc(C)[n+](Cc2ccccc2)cc1C(N)=O`, for which the EC50 in the data set “cells [5]” and in “cells [6]” was > 350 µM (not active) in each case.
For the compound `N=C(N)SCc1cccc2c(=O)cc(-c3ccccc3)oc12`, the figures for the AC50 at Cytochrome P450 3A4 and on Cytochrome P450 2C19 (read-out: AC50) were 3.16 µM (inconclusive) and 3.98 µM (inconclusive), respectively.
With `Cc1ccc(/C=C/C2=NN(Cc3ccccc3)C(=O)CC2)cc1`, the CC50 in data set [4] was 15 µM (active).
As for `N#C/C(=C(\O)C(=O)O)c1ccc(-c2cccc3ccccc23)cc1`, the figures for the AC50 on Cytochrome P450 2C9 and on Cytochrome P450 2C19 were 3.16 µM (inconclusive) and “inconclusive”, respectively.
Turning to `O=C1CSc2ccc(C(=O)NCCC3=CCCCC3)cc2N1`, the values for the AC50 at Cytochrome P450 3A4 and on Cytochrome P450 2C19 (read-out: AC50) were 12.6 µM (inconclusive) and 7.94 µM (inconclusive), respectively.
As to `CC(=O)c1cccc(Nc2nc(-c3ccccc3)cs2)c1`, the CC50 in data set [4] is 21.2 µM (active).
Consider `O=C(Oc1ccccc1)N1CCC2(CC1)CN(Cc1ccncc1)C2`, for which the AC50 at Cytochrome P450 3A4 is 12.6 µM (inconclusive); on Cytochrome P450 1A2 it was 10 µM (inconclusive); at Cytochrome P450 2C19 (read-out: AC50), 20 µM (inconclusive).
Regarding `Cc1cccc2sc(NC(=O)C3CSC4(C)CCC(=O)N34)nc12` (stereo not given), the EC50 in data set [1], in data set [2] and in data set [3] was > 120 µM (not active) in each case.
As to `Cc1ccccc1OCC(=O)Nc1ccc(N2CCN(C)CC2)c(Cl)c1`, the EC50 in “cells [5]” and in the data set “cells [6]” was > 350 µM (not active) throughout.
Take `CCn1nc(NS(=O)(=O)c2ccc(NC(C)=O)cc2)c2cc3cccc(C)c3nc21`: the EC50 in the data set “cells [5]” and in “cells [6]” was > 350 µM (not active) each time.
As to `CCOC(=O)c1c(N)n(CCCOC(=O)c2ccco2)c2nc3ccccc3nc12`, the values for the EC50 in data set [1], in [2] and in data set [3] were 8.24 µM (active), > 120 µM (not active) and > 120 µM (not active), respectively.
For the compound `O=C(Nc1ccccn1)C1CCN(c2ncnc3c2nc2n3CCCCC2)CC1`, the CC50 in data set [4] is 18.5 µM (active).
For `COC(=O)C1=C(N)Oc2cc(N(C)C)ccc2C1c1ccccc1OC` (stereo not given), the EC50 in data set [1] is 6.94 µM (active); in [3], 11.3 µM (active).
For `O=C(Nc1nc2ccccc2n1CCN1CCCCC1)C1CCCCC1`, the AC50 on Cytochrome P450 3A4 was 17.8 µM (inconclusive); at Cytochrome P450 2C19 (read-out: AC50) it was 28.2 µM (inconclusive).
Consider `Cc1ccc(S(=O)(=O)c2cc3c(=O)n4cccc(C)c4nc3n(Cc3ccncc3)c2=N)cc1`, for which the EC50 in data set [1], in data set [2] and in data set [3] was > 120 µM (not active) throughout.
Turning to `Cc1ccc(S(=O)(=O)N(C)C)cc1NC(=O)COC(=O)/C(=C/c1ccc(F)cc1)c1cccs1`, the CC50 in data set [4] was 29.7 µM (active).
Regarding `COc1ccc(C2(C)NC(=O)N(CC(=O)Nc3ccc4c(c3)OCO4)C2=O)cc1OC` (stereo not given), the EC50 in data set [1], in data set [2] and in data set [3] was > 120 µM (not active) in each case.

What is called AC50 is the concentration giving half of the maximal activity seen. In general, EC50 refers to the concentration at which the effect is half-maximal. By CC50 is commonly meant the concentration giving 50% cytotoxicity.

Values taken from ChEMBL document CHEMBL1201862, “PubChem BioAssay data set” (2004).
